tested on: rat adipocytes; assay: In vitro lipolysis assay (antilipolytic activity in rat adipocytes); type: cell-based; conditions: Rattus norvegicus, Adipocyte, 1 h; norepinephrine-stimulated lipolysis, glycerol assayed, 60 min; read-out: Lipo ec50
Description: Determination of Antilipolytic Activity in Rat Adipocytes
Isolation of Adipocytes from Epididymal Fat Pads
Adipose tissue is removed from anesthetized rats and rinsed twice in incubation medium (2.09 g sodium bicarbonate and 0.04 g EDTA, disodium salt, in 1 L Krebs buffer). Each rat (300-350 g) yields approximately 4 mL of adipose tissue. The adipose tissue (35 mL) is cut into small pieces with scissors and washed with incubation medium (50 mL). The mixture is poured into the barrel of a 50 mL syringe to which is attached a short piece of clamped tubing instead of a needle. The aqueous phase is allowed to drain. A second wash with incubation medium is passed through the syringe. The tissue is added to 50 mL of collagenase solution (collagenase (90 mg), bovine serum albumin (BSA) (500 mg), and 0.1 M calcium chloride solution (1 mL), in incubation medium (50 mL)) in a 1 L bottle. The mixture is shaken in an environmental at 37° C. for about 60 minutes under an atmosphere of 95% oxygen/5% carbon dioxide to effect digestion of the tissue. The dispersed cells are poured through 2 layers of cheese cloth into a 100 mL plastic beaker. The undigested clumps in the cloth are rinsed once with incubation medium (20 mL). The cells in the beaker are centrifuged in 2 plastic tubes for 30 seconds at room temperature at 300 rpm. The aqueous phase is aspirated from beneath the loosely packed layer of floating fat cells and discarded. The adipocytes are gently poured into a 250 mL plastic beaker containing 100 mL of rinse solution (1 g BSA per 100 mL incubation medium). After gentle stirring the centrifugation step is repeated. Another wash with rinse solution follows. The cells are pooled and their volume is estimated with a graduated cylinder. The adipocytes are diluted in twice their volume of assay buffer (incubation medium (120 mL), BSA (1.2 g), pyruvic acid (13 mg)).
The assay is performed in 20 mL plastic scintillation vials and the total assay volume is 4.2 mL. Assay buffer (2.5 mL), diluted adipocytes (1.5 mL), and a solution of the compound to be tested (12.3 μL) adenosine agonist (12.3 μl; varying concentration) is incubated in the environmental shaker for 15 minutes, then the reaction is started with norepinephrine solution (41.2 μL) (10 nM, in a carrier solution containing water (100 mL), BSA (4 mg), and 0.1 M EDTA (20 μL))and adenosine deaminase (1 μg/mL, 41.2 μl). After sixty minutes in the shaker the reaction is terminated by putting the vials on ice. […] The hard lipid layer is removed by aspiration and the aqueous layer is assayed for glycerol (400 μl of sample). The positive control is done in the absence of any adenosine agonist, substituting water in place of the solution to be tested.

Going from `OC[C@H]1C[C@@H](n2cnc3c(N[C@H]4CCN(c5ccc(Cl)nn5)C4)ncnc32)[C@H](O)[C@@H]1O` [Example 47, (1R,2S,3R,5R)-3-[6-[1-(6-chloropyridazin-3-yl)pyrrolidin-3(S)-ylamino]-purin-9-yl]-5-hydroxymethylcyclopentane-1,2-diol] to `OC[C@H]1O[C@@H](n2cnc3c(N[C@H]4CCN(c5ccc(-c6cccs6)cn5)C4)ncnc32)[C@H](O)[C@@H]1O` [Example 18, (2R,3R,4S,5R)-5-hydroxymethyl-2-[6-[1-(5-thiophen-2-ylpyridin-2-yl)-pyrrolidin-3(S)-ylamino]-purin-9-yl]tetrahydrofuran-3,4-diol], the EC50 falls from 129 nM to 2.24 nM (58-fold).

same assay, conditions: norepinephrine-stimulated lipolysis, glycerol assayed, 60 min; read-out: Lipo ec50

`O=C1C[C@H](Nc2ncnc3c2ncn3[C@@H]2C[C@H](CO)[C@@H](O)[C@H]2O)CN1Cc1ccccc1` [Example 6, 4(S)-1-benzyl-4-[9-((1R,2S,3R,5R)-1,2-dihydroxy-5-hydroxymethylcyclopent-3-yl)-9H-purin-6-ylamino]pyrrolidin-2-one] gave an EC50 of 267 nM.

tested on: not given; assay: not given; conditions: not given

First: OC[C@H]1O[C@@H](n2cnc3c(N[C@@H]4CCN(c5ccc(C(F)(F)F)cn5)C4)ncnc32)[C@H](O)[C@@H]1O (hydrate or solvate) [Example 4, (2R,3R,4S,5R)-5-hydroxymethyl-2-[6-[1-(5-trifluoromethylpyridin-2-yl)-pyrrolidin-3(R)-ylamino]purin-9-yl]tetrahydrofuran-3,4-diol]
Second: OC[C@H]1O[C@@H](n2cnc3c(NC4CCCN(c5ccc(C(F)(F)F)cn5)C4)ncnc32)[C@H](O)[C@@H]1O (stereo partly drawn) [Example 13, (2R,3R,4S,5R)-5-hydroxymethyl-2-[6-(5′-trifluoromethyl-3,4,5,6-tetrahydro-2H-[1,2′]-bipyridinyl-3-ylamino)-purin-9-yl]tetrahydrofuran-3,4-diol]
The melting point of the first is higher: 166 to 170 °C for the first, 113 to 116 °C for the second.

First: CC(C)OC[C@H]1C[C@@H](n2cnc3c(N[C@H]4CCN(c5ccc(C(F)(F)F)cn5)C4)ncnc32)[C@H](O)[C@@H]1O [Example 49, (1R,2S,3R,5R)-5-isopropoxymethyl-3-[6-[1-(5-trifluoromethylpyridin2-yl)pyrrolidin-3(S)-ylamino]-purin-9-yl]cyclopentane-1,2-diol]
Second: COC[C@H]1O[C@@H](n2cnc3c(N[C@H]4CCN(c5ccc(C(F)(F)F)cn5)C4)ncnc32)[C@H](O)[C@@H]1O [Example 23, (2R,3R,4S,5R) -5-methoxymethyl-2-[6-[1-(5-trifluoromethylpyridin-2-yl)-pyrrolidin-3(S)-ylamino]-purin-9-yl]tetrahydrofuran-3,4-diol]
The melting point of the first is lower: 157 to 158 °C for the first, 198 to 200 °C for the second.

First: OC[C@H]1O[C@@H](n2cnc3c(N[C@H]4CCN(c5ccccn5)C4)ncnc32)[C@H](O)[C@@H]1O [Example 15, (2R,3R,4S,5R)-5-hydroxymethyl-2-[6-(1-pyridin-2-ylpyrrolidin-3(S)-ylamino]-purin-9-yl]tetrahydrofuran-3,4-diol]
Second: OC[C@H]1O[C@@H](n2cnc3c(N[C@H]4CCN(c5ccc(Cl)cn5)C4)ncnc32)[C@H](O)[C@@H]1O [Example 8, (2R,3R,4S,5R)-5-hydroxymethyl-2-[6-[1-(5-chloropyridin-2-yl)-pyrrolidin-3(S)-ylamino]-purin-9-yl]-tetrahydrofuran-3,4-diol]
The melting point of the first is higher: 193 to 195 °C for the first, 154 to 156 °C for the second.

First: OC[C@H]1C[C@@H](n2cnc3c(N[C@H]4CCN(Cc5ccccc5)C4)ncnc32)[C@H](O)[C@@H]1O [Example 59, (1R,2S,3R,5R)-3-[6-(1-benzyl-pyrrolidin-3(S)-ylamino)purin-9-yl]-5-hydroxymethylcyclopentane-1,2-diol]
Second: COC[C@H]1C[C@@H](n2cnc3c(N[C@H]4CCN(Cc5ccccc5)C4)ncnc32)[C@H](O)[C@@H]1O [Example 60, (1R,2S,3R,5R)-3-[6-(1-benzyl-pyrrolidin-3(S)-ylamino)purin-9-yl]-5-methoxymethylcyclopentane-1,2-diol]
The melting point of the first is higher: 100 to 102 °C for the first, 95 to 96 °C for the second.

Compared with `OC[C@H]1O[C@@H](n2cnc3c(N[C@H]4CCN(c5cc(C(F)(F)F)ccn5)C4)ncnc32)[C@H](O)[C@@H]1O` [Example 10, (2R,3R,4S,5R)-5-hydroxymethyl-2-[6-[1-(4-trifluoromethylpyridin-2-yl)-pyrrolidin-3(S)-ylamino]-purin-9-yl]tetrahydrofuran-3,4-diol], `Cc1ccc(N2CC[C@H](Nc3ncnc4c3ncn4[C@@H]3O[C@H](CO)[C@@H](O)[C@H]3O)C2)nc1` [Example 17, (2R,3R,4S,5R)-5-hydroxymethyl-2-[6-[1-(5-methylpyridin-2-yl)-pyrrolidin-3(S)-ylamino]-purin-9-yl]tetrahydrofuran-3,4-diol] is lower in melting point: 187 to 190 °C for the first, 164 to 166 °C for the second.

First: COC[C@H]1C[C@@H](n2cnc3c(N[C@H]4CCN(c5ccccc5)C4)ncnc32)[C@H](O)[C@@H]1O [Example 58, (1R,2S,3R,5R)-5-methoxymethyl-3-[6-[1-phenylpyrrolidin-3-(S)-ylamino]-purin-9-yl]cyclopentan-1,2-diol]
Second: OC[C@H]1C[C@@H](n2cnc3c(N[C@H]4CCN(c5cnc6ccccc6c5)C4)ncnc32)[C@H](O)[C@@H]1O [Example 36, (1R,2S,3R,5R)-5-hydroxymethyl-3-[6-[1-(quinolin-3-yl)pyrrolidin-3(S)-ylamino]-purin-9-yl]cyclopentane-1,2-diol]
The melting point of the first is lower: 106 °C for the first, 135 to 138 °C for the second.

Compared with `O=[N+]([O-])c1ccc(N2CCC(Nc3ncnc4c3ncn4[C@@H]3C[C@H](CO)[C@@H](O)[C@H]3O)CC2)cc1` [Example 25, (1R,2S,3R,5R)-5-hydroxymethyl-3-[6-[1-(4-nitrophenyl)piperidin-4-ylamino]-purin-9-yl]cyclopentane-1,2-diol], `O=[N+]([O-])c1ccc(N2CC[C@H](Nc3ncnc4c3ncn4[C@@H]3O[C@H](CO)[C@@H](O)[C@H]3O)C2)cc1` [Example 12, (2R,3R,4S,5R)-5-hydroxymethyl-2-(6-(1-(4-nitrophenyl)-pyrrolidin-3(S)-ylamino)-purin-9-yl) tetrahydrofuran-3,4-diol] is higher in melting point: 126 to 128 °C for the first, 230 to 232 °C for the second.

First: CSc1ccc(N2CC[C@H](Nc3ncnc4c3ncn4[C@@H]3O[C@H](CO)[C@@H](O)[C@H]3O)C2)nc1 [Example 19, (2R,3R,4S,5R)-5-hydroxymethyl-2-[6-[1-(5-methylmercaptopyridin-2-yl)-pyrrolidin-3(S)-ylamino]-purin-9-yl]tetrahydrofuran-3,4-diol]
Second: OC[C@H]1O[C@@H](n2cnc3c(N[C@H]4CCN(c5ccc(Cl)cc5)C4)ncnc32)[C@H](O)[C@@H]1O [Example 16, (2R,3R,4S,5R)-5-hydroxymethyl-2-[6-[1-(4-chlorophenyl)-pyrrolidin-3(S)-ylamino]-purin-9-yl]-tetrahydrofuran-3,4-diol]
The melting point of the first is higher: 231 to 233 °C for the first, 121 to 124 °C for the second.

First: COC[C@H]1C[C@@H](n2cnc3c(N[C@H]4CCN(c5cc(OC)ncn5)C4)ncnc32)[C@H](O)[C@@H]1O [Example 48, (1R,2S,3R,5R)-5-methoxymethyl-3-[6-[1-(6-methoxypyrimidin-4-yl)pyrrolidin-3(S)-ylamino]-purin-9-yl]cyclopentane-1,2-diol]
Second: OC[C@H]1C[C@@H](n2cnc3c(N[C@H]4CCN(c5cc(Cl)ncn5)C4)ncnc32)[C@H](O)[C@@H]1O [Example 45, (1R,2S,3R,5R)-3-[6-[1-(6-chloropyrimidin-4-yl)pyrrolidin-3(S)-ylamino]-purin-9-yl]-5-hydroxymethylcyclopentane-1,2-diol]
The melting point of the first is lower: 118 to 120 °C for the first, 180 to 182 °C for the second.

With `CC[C@@H](C)NC(=O)[C@H]1C[C@@H](n2cnc3c(N[C@H]4CCN(c5ccc(C(F)(F)F)cn5)C4)ncnc32)[C@H](O)[C@@H]1O` [Example 62, (1S,2R,3S,4R)-2,3-dihydroxy-4-{6-[1-(5-trifluoromethyl-pyridin-2-yl)-pyrrolidin-3(S)-ylamino]-purin-9-yl}-cyclopentanecarboxylic acid-1(R)-methylpropylamide] the melting point was 206 to 212 °C (dec.).
For `OC[C@H]1C[C@@H](n2cnc3c(N[C@@H]4CCNC4)ncnc32)[C@H](O)[C@@H]1O` [Example 28, (1R,2S,3R,5R)-5-hydroxymethyl-3-[6-((3R)-pyrrolidin-3-ylamino)-purin-9-yl]cyclopentane-1,2-diol], the melting point was 166 °C (dec.).
